Measured values published in PMC9227781, “Inhibitors of O-Acetylserine Sulfhydrylase with a Cyclopropane-Carboxylic Acid Scaffold Are Effective Colistin Adjuvants in Gram Negative Bacteria” (Pharmaceuticals, 2022).
In brackets after ≈: the same amount, converted by molar mass.

How the values were obtained:
MDBK cells = test: Cytotoxicity assay (MTT) on MDBK cells; type: cell-based, bovine; details: 32, 16, 8 µg/mL; MTT test
Protocol: The cytotoxicity assay was performed using the 3-(4,5-dimethylthiazol-2-yl)-2,5-diphenyltetrazolium bromide (MTT) test, following the procedure used by Donofrio et al.. MDBK cells were cultured on microtiter tissue culture plates in DMEM medium for 24 h at 37 °C in the presence of 5% CO2. After incubation, when the cell monolayer was at confluence, an aliquot of 1 µL of UPAR415 in DMSO at different concentrations was added in each well, containing a volume of 100 µL of DMEM medium and MDBK cells, and then the plates were reincubated at the same conditions. After incubation, 10 µL of MTT at 200 mg/mL (3-(4,5-dimethylthiazol-2-yl)-2,5-diphenyltetrazolium bromide) was added to each well and incubated at 37 °C for 6 h. At the end of the incubation, 100 µL of the solubilization solution (10% SDS in 0.01 M HCl) was added to each well and then incubated overnight. The MTT compound, a yellow tetrazolium salt, is reduced by mitochondrial enzymes (succinate dehydrogenase) of metabolically active eukaryotic cells to insoluble formazan crystals. In the presence of metabolically active cells, after the addition of a detergent solution (10% SDS in […]) that allows the formazan to be released from the cells, a violet color is seen in the medium. Instead, in the presence of non-viable cells, MTT is not reduced to formazan and therefore the solution will remain yellow.
After incubation, plates were read with a spectrophotometer at 620 nm. Positive controls (PC)—without any compounds—and PCs with 1% DMSO were performed for each plate and three replicates for two independent experiments were performed for each assay.

StOASS-A = molecular target: T1, StOASS-A (Salmonella typhimurium, UniProt P0A1E3); test: Fluorescence binding assay on purified recombinant StOASS-A; design: species or system S. Typhimurium; details: 20 °C, 100 mM HEPES, 5% DMSO, pH 7.0, racemic mixture, esters tested up to 100 μM
T1 construct: His-tag (with TEV site) (cleaved yes); made in house; host or cells: E. coli Rosetta (DE3)
T1 sequence (P0A1E3 whole entry): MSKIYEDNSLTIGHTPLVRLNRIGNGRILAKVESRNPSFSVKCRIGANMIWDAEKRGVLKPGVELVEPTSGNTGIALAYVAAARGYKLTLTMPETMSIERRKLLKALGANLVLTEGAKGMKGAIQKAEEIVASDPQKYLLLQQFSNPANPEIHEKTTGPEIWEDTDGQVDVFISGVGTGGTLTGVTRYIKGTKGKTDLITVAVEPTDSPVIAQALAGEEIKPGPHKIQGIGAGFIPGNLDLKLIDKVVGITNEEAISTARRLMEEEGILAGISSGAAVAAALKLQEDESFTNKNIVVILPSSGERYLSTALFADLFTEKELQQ
Protocol: (§1) The affinity of the compounds for StOASS-A and StOASS-B was determined on the purified recombinant proteins by an in vitro fluorescence binding assay. Measurements were carried out at 20 °C in a 3 mm pathlength quartz microcuvette in 100 mM HEPES, 5% DMSO (Applichem, Darmstadt, Germany), pH 7.0, using a Fluoromax-4 (Horiba Jobin-Yvon, Kyoto, Japan) spectrofluorometer. Emission spectra of solutions containing 0.2–1.0 μM StOASS, upon excitation of the pyridoxal 5′-phosphate cofactor at 412 nm, in the presence of increasing concentrations of compounds were collected; fluorescence intensities at 500 nm were plotted to compound concentration and data were fitted to a binding isotherm: I=I0+ΔI·compound/KD+compound where I is the fluorescence emission intensity at 500 nm in the presence of a given concentration of compound, I0 is the initial fluorescence emission in the absence of ligands, ΔI is the amplitude of the fluorescence emission change and KD is the dissociation constant. When the KD was lower than the protein concentration, data were fitted to the quadratic equation: I=I0+ΔI·OASS+compound+KD−OASS+compound+KD^2−4·OASS·compound/2
(§2) Data were collected in duplicate.
(§3) Esters were tested up to a concentration of 100 μM and no binding was observed.

E. coli ATCC 25922 = test: MIC by broth microdilution, E. coli; type: cell-based, Escherichia coli; details: compound alone, MHB, 24 h at 37 °C; for MIC: Escherichia coli, ATCC25922, read-out: MIC (μg/mL) E.coli ATCC 25922
Protocol: (§4) MIC values were evaluated following CLSI guidelines with some modifications, as referred to in previous work. Twofold dilutions 25.6–0.05 mg/mL of the tested compounds were performed in DMSO in separate 96-well microtiter U-plates (Greiner, Milan, Italy). In a different 96-well microtiter U-plate, for each well of the replicates, 49 µL of broth medium were added. Then, in each well of the plate, one microliter of each compound at variable dilution in DMSO was added. For each test, three independent experiments with three replicates each were performed. Tested reference bacterial strains (E. coli ATCC25922; S. Typhimurium ATCC14028; K. pneumoniae ATCC13883) were brought to the logarithmic phase of growth in MHB medium by incubation at 37 °C for 24 h. After incubation, bacterial suspensions were centrifuged (2000 rpm, 4 °C for 20 min), and then the pellets were resuspended in 100 mM phosphate buffer, pH 7.0, to reach a final bacterial concentration of 10^8 CFU/mL, adjusted by spectrophotometry (OD620nm ranged between 0.08–0.13). The obtained suspensions were further diluted 1:100 in broth medium to reach a bacterial concentration of 10^6 CFU/mL. Fifty µL of the bacterial suspension containing 10^6 CFU/mL were inoculated into each well within 30 min, to obtain a final concentration of 5 × 10^5 CFU/mL in a total volume of 100 µL. The final dilution range tested was 256–0.5 µg/mL. Growth and sterility controls were performed for each strain and for each tested compound. Plates were then incubated for 24 h at 37 °C in a static aerobic atmosphere. After incubation, plates were read by unaided eye with a microtiter reading mirror and then the OD of each well of the plates was measured spectrophotometrically at 620 nm. MIC values were calculated as the arithmetic mean ± standard deviation (SD) of the unaided eye reading and the inhibition of growth for each tested dilution was calculated from the OD values (mean ± SD). A quality control microorganism (E. coli ATCC 25922) was tested periodically to validate the accuracy of the procedure.

S. Typhimurium ATCC14028 = test: MIC by broth microdilution, S. Typhimurium; type: cell-based, Salmonella enterica serovar Typhimurium; details: compound alone, MHB, 24 h at 37 °C; for MIC: Salmonella enterica, read-out: MIC (μg/mL) S. Typhimurium ATCC14028
Protocol: as §4

StOASS-B = molecular target: T2, StOASS-B (Salmonella typhimurium, UniProt P29848); test: Fluorescence binding assay on purified recombinant StOASS-B; details: for KD (μM) OASS-B: 20 °C, 100 mM HEPES, 5% DMSO, pH 7.0, racemic mixture, esters tested up to 100 μM
T2 construct: His-tag (with TEV site) (cleaved yes); made in house; host or cells: E. coli Rosetta (DE3)
T2 sequence (P29848 1-303): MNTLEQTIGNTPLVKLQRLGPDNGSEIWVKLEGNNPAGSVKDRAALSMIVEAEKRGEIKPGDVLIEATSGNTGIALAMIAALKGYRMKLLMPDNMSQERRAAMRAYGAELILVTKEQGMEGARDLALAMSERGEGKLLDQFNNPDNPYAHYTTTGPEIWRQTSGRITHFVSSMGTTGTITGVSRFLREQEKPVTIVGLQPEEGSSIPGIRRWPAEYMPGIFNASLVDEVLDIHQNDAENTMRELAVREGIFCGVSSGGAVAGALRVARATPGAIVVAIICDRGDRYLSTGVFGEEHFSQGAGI
Protocol: as §1, §2, §3

K. pneumoniae ATCC13883 = test: MIC by broth microdilution, K. pneumoniae; type: cell-based, Klebsiella pneumoniae; details: compound alone, MHB, 24 h at 37 °C; for MIC: Klebsiella pneumoniae, ATCC13883, read-out: MIC (μg/mL) K. pneumoniae ATCC13883
Protocol: as §4

## CCOC(=O)[C@]1(Cc2ccc(C)cc2)C[C@H]1c1cccc(-c2cn[nH]c2)c1 (relative stereo) [Compound 8c, trans-ethyl 2-(3-(1H-pyrazol-4-yl)phenyl)-1-(4-methylbenzyl)cyclopropanecarboxylate]
MDBK cells
  Toxicity on viability of MDBK cells: high toxicity profiles
StOASS-A
  KD (μM) OASS-A: No binding
E. coli ATCC 25922
  MIC: > 512 µg/mL
S. Typhimurium ATCC14028
  MIC: > 512 µg/mL
StOASS-B
  KD (μM) OASS-B: No binding
K. pneumoniae ATCC13883
  MIC: > 512 µg/mL

## CCOC(=O)C1(Cc2ccc(C)cc2)CC1c1cccc(-c2c[nH]nc2C)c1 (centres unmarked) [Compound 8b, ethyl 2-(3-(3-methyl-1H-pyrazol-4-yl)phenyl)-1-(4-methylbenzyl)cyclopropanecarboxylate]
MDBK cells
  Toxicity on viability of MDBK cells: high toxicity profiles
StOASS-A
  KD (μM) OASS-A: No binding
E. coli ATCC 25922
  MIC: > 512 µg/mL
S. Typhimurium ATCC14028
  MIC: > 512 µg/mL
StOASS-B
  KD (μM) OASS-B: No binding
K. pneumoniae ATCC13883
  MIC: > 512 µg/mL

## CCOC(=O)[C@]1(Cc2ccc(C)cc2)C[C@H]1c1cccc(-c2cc(O)cc(F)c2)c1 (relative stereo) [Compound 8e, trans-ethyl 2-(3′-fluoro-5′-hydroxy-[1,1′-biphenyl]-3-yl)-1-(4-methylbenzyl) cyclopropanecarboxylate]
MDBK cells
  Toxicity on viability of MDBK cells: high toxicity profiles
StOASS-A
  KD (μM) OASS-A: No binding
E. coli ATCC 25922
  MIC: > 512 µg/mL
S. Typhimurium ATCC14028
  MIC: > 512 µg/mL
StOASS-B
  KD (μM) OASS-B: No binding
K. pneumoniae ATCC13883
  MIC: > 512 µg/mL

## Cc1ccc(C[C@@]2(C(=O)O)C[C@H]2c2cccc(-c3ccccc3)c2)cc1 (relative stereo) [Compound 9d, trans-2-([1,1′-biphenyl]-3-yl)-1-(4-methylbenzyl)cyclopropanecarboxylic acid]
StOASS-A; read-out: KD (μM) OASS-A
  Kd: 2.51 ± 0.61 µM
E. coli ATCC 25922
  MIC: > 512 µg/mL
S. Typhimurium ATCC14028
  MIC: > 512 µg/mL
StOASS-B
  Kd: 6.8 ± 1.1 µM
K. pneumoniae ATCC13883
  MIC: > 512 µg/mL

## CCOC(=O)[C@]1(Cc2ccc(C)cc2)C[C@H]1c1cccc(N2CCNCC2)c1 (relative stereo) [Compound 20i, trans-ethyl 1-(4-methylbenzyl)-2-(3-(piperazin-1-yl)phenyl)cyclopropanecarboxylate]
MDBK cells
  Toxicity on viability of MDBK cells: high toxicity profiles
StOASS-A
  KD (μM) OASS-A: No binding
E. coli ATCC 25922
  MIC: 40 µg/mL (≈ 106 µM)
  MIC (μg/mL) E.coli ATCC 25922: measurable antimicrobial activity
S. Typhimurium ATCC14028
  MIC: 36 µg/mL (≈ 95.1 µM)
  MIC (μg/mL) S. Typhimurium ATCC14028: measurable antimicrobial activity
StOASS-B
  KD (μM) OASS-B: No binding
K. pneumoniae ATCC13883
  MIC: 32 µg/mL (≈ 84.5 µM)
  MIC (μg/mL) K. pneumoniae ATCC13883: measurable antimicrobial activity

## CCOC(=O)[C@]1(Cc2ccc(C)cc2)C[C@H]1c1cccc(-c2cccc(F)c2)c1 (relative stereo) [Compound 8f, trans-ethyl 2-(3′-fluoro-[1,1′-biphenyl]-3-yl)-1-(4-methylbenzyl)cyclopropanecarboxylate]
MDBK cells
  Toxicity on viability of MDBK cells: proliferative effects
StOASS-A
  KD (μM) OASS-A: No binding
E. coli ATCC 25922
  MIC: > 512 µg/mL
S. Typhimurium ATCC14028
  MIC: > 512 µg/mL
StOASS-B
  KD (μM) OASS-B: No binding
K. pneumoniae ATCC13883
  MIC: > 512 µg/mL

## CCOC(=O)[C@]1(Cc2ccc(C)cc2)C[C@H]1c1cccc(N2CCN(C)CC2)c1 (relative stereo) [Compound 20j, trans-ethyl 1-(4-methylbenzyl)-2-(3-(4-methylpiperazin-1-yl)phenyl)cyclopropanecarboxylate]
MDBK cells
  Toxicity on viability of MDBK cells: high toxicity profiles
StOASS-A
  KD (μM) OASS-A: No binding
E. coli ATCC 25922
  MIC: > 512 µg/mL
S. Typhimurium ATCC14028
  MIC: > 512 µg/mL
StOASS-B
  KD (μM) OASS-B: No binding
K. pneumoniae ATCC13883
  MIC: > 512 µg/mL

## CCOC(=O)[C@]1(Cc2ccc(C)cc2)C[C@H]1c1cccc(N2CCOCC2)c1 (relative stereo) [Compound 12g, trans-ethyl 1-(4-methylbenzyl)-2-(3-morpholinophenyl)cyclopropanecarboxylate]
MDBK cells
  Toxicity on viability of MDBK cells: proliferative effects
StOASS-A
  KD (μM) OASS-A: No binding
E. coli ATCC 25922
  MIC: > 512 µg/mL
S. Typhimurium ATCC14028
  MIC: > 512 µg/mL
StOASS-B
  KD (μM) OASS-B: No binding
K. pneumoniae ATCC13883
  MIC: > 512 µg/mL
